# Laboratory results as given in patent US20220362122A1, “Hair Treatment Compositions With Amine Derivatives” (ELC Management LLC, priority 2021, published 2022).
# “Also recorded” adds a separate entry of the source.
# Tests used:
# [1] = alkalizer composition; 22° C., T-F spindle, 6 rpm
# [2] = alkalizer composition
# [3] = active component; cited from earlier work
# [4] = pH of alkalizer composition
# [5] = Tensile strength: break stress of treated hair fibers; conditions: hair fibers after alkalizer composition + oxidant
# [6] = test system: keratin in hair; test: DSC analysis: keratin denaturation temperature of treated hair
# [7] = single alkalizer compositions, Table 5
# [8] = single alkalizer compositions, Table 4A
compound,measurement,setting,value
"CN(C)CCCO [DMAP, 3-Dimethyl-amino-1-propanol]",Viscosity (cP × 10^5),[1],2.77 cP × 10^5
same,Alkalinity,[2],2.32 mL/g
same,Lifting level normalized to NH3•H2O,[7],0.53
same,Relative lifting level in percentage (LVirgin-LAlkalizer)/(LVirgin-LNaOH),[7],45.45%
same,ΔL (change in color lifting) LVirgin-LAlkalizer,[7],−8
same,"lifting of natural hair color, comparison in words",single alkalizer/oxidizer mixtures,performed significantly less well than ammonium hydroxide
same,pKa,[3],9.27
same,pH,[4],10.58
same,"break stress / fiber damage, comparison in words",[5],cause a similar amount of damage or less damage than their primary amine analogs
same,"hair damage / denaturation temperature, comparison in words","[6]; DSC, single alkalizer compositions",performed the closest to ammonium hydroxide; also recorded: less damaging to hair than the ammonium hydroxide composition; also recorded: a better performer than ammonia
same,Denaturation Temperature (° C.),"[6]; single alkalizer composition + volume 40 (12%) oxidizer developer on hair tresses, 37° C., 45 minutes, virgin hair 150.42",147.80 °C
same,% Relative damage level compared to NaOH (TVirgin-TAlkalizer)/(TVirgin-TNaOH),[6]; [8],18.33%
same,Damage level normalized to NH3•H2O,[6]; [8],0.94
same,ΔT (change in denaturation temperature) TVirgin-TAlkalizer,[6]; [8],2.62
